From patent US20120053122A1, “METHOD FOR THE PROPHYLAXIS OR TREATMENT OF FLUSHING” (priority 2009, published 2012)
Read-outs that look alike come from different tables or passages of the source. Square brackets hold non-standard residues; d marks the D form. Peptide text beside a SMILES is read from it. dPhe(4-Cl) = N[C@H](Cc1ccc(Cl)cc1)C(=O)O; d2Nal = N[C@H](Cc1ccc2ccccc2c1)C(=O)O; dCit = NC(=O)NCCC[C@@H](N)C(=O)O; d3Pal = N[C@H](Cc1cccnc1)C(=O)O

Legend:
PMP flushing [1] = details: in vivo; cited from earlier work
PMP flushing [2] = system: PMP flushing
Protocol: (§1) Three women who were referred for treatment of severe PMP flushing were included in the pilot study, after signing an informed consent. All three had frequent and severe flushing, during daytime as well as during the night. Sleep was often disturbed by flushes and sweat attacks, often forcing a change of clothes and/or bed linen. Physical examination in these patients was unremarkable and other causes of flushing were excluded. Thyroid function was normal, 24 hour urinary hydroxy-indol-acetic acid and catecholamines were within the reference range, serum tryptase was normal, and none used any medication known to induce flushing.

breast cancer = breast cancer survivors; cited from earlier work
PMP flushing [3] = test: Short-term in-hospital response: flush diary (frequency, duration, severity, sweating); assay type: in vivo, women
Protocol: as §1
(§2) To avoid intermittent and variable interference of external factors as much as possible, and to guarantee a constant ambient temperature all subjects were hospitalized for further study. They remained ambulatory during that period. They were instructed to record the following flush characteristics in a diary: time of onset, duration in minutes, flush severity on a scale of 0-10, and the degree of associated sweat attacks: 0=no sweating; 1=mild sweating, i.e. only moist skin, no visible sweat drops; 2=moderate sweating, i.e. visible sweat drops; 3=severe sweating, i.e. totally wet, change of clothes necessary. Blood samples for measurement of serum LH, FSH, estradiol, SHBG and albumin were taken each day at 08.00 h and 20.00 h.

[4] = system: serum LH, FSH, estradiol, SHBG and albumin; test: Short-term in-hospital response: serum LH, FSH, estradiol, SHBG and albumin; assay type: in vivo, women
Source text: as §2, with “h. LH, FSH and estradiol were measured by electrochemiluminescene immunoassays (Roche Diagnostics, Mannheim, Germany). Normal ranges in PMP women: LH>10 U/L, FSH>30 U/L, estradiol<100 nmol/L. SHBG was measured by chemilumiescent enzyme immunoassay (DPC, Los Angeles, Calif., USA, normal range in PMP women: 18-144 nmol/L)).” for “h.”

serum LH and FSH = test: Long-term treatment, outpatient setting: serum LH and FSH; assay type: in vivo, women
Protocol: LH, FSH and estradiol were measured by electrochemiluminescene immunoassays (Roche Diagnostics, Mannheim, Germany). Normal ranges in PMP women: LH>10 U/L, FSH>30 U/L, estradiol<100 nmol/L. SHBG was measured by chemilumiescent enzyme immunoassay (DPC, Los Angeles, Calif., USA, normal range in PMP women: 18-144 nmol/L)). To evaluate whether responsiveness was maintained in the long run, Cetrorelix treatment was studied for a prolonged period in an outpatient setting. Cetrorelix was started after a baseline observation period of 3-6 days. In the first two patients the starting dose was of 250 μg once a day, injected at about 8.30-9.00 h, just after the morning blood sampling. In the third patient the starting dose was 500 μg once a day. Blood was sampled only in the morning, between 8.00 en 9.00 h, every day during the first 4 days, thereafter every 3 days for a brief period, and later on once a week.

PMP flushing [5] = test: Long-term treatment, outpatient setting: flush recording; assay type: in vivo, women
Source text: To avoid intermittent and variable interference of external factors as much as possible, and to guarantee a constant ambient temperature all subjects were hospitalized for further study. They remained ambulatory during that period. They were instructed to record the following flush characteristics in a diary: time of onset, duration in minutes, flush severity on a scale of 0-10, and the degree of associated sweat attacks: 0=no sweating; 1=mild sweating, i.e. only moist skin, no visible sweat drops; 2=moderate sweating, i.e. visible sweat drops; 3=severe sweating, i.e. totally wet, change of clothes necessary. Blood samples for measurement of serum LH, FSH, estradiol, SHBG and albumin were taken each day at 08.00 h and 20.00 h. To evaluate whether responsiveness was maintained in the long run, Cetrorelix treatment was studied for a prolonged period in an outpatient setting. Cetrorelix was started after a baseline observation period of 3-6 days. In the first two patients the starting dose was of 250 μg once a day, injected at about 8.30-9.00 h, just after the morning blood sampling. In the third patient the starting dose was 500 μg once a day. Blood was sampled only in the morning, between 8.00 en 9.00 h, every day during the first 4 days, thereafter every 3 days for a brief period, and later on once a week.

[6] = Patient 1, 250 μg once a day for five days
[7] = Patient 1, 250 μg once a day, within 24 hours
[8] = Patient 2, 250 μg once a day, 4th day of treatment
[9] = Patient 3, 250 μg once a day, after the first 5 days
[10] = Patient 3, 250 μg once a day at 08.30 h
[11] = Patient 1, discontinued after 4 months
[12] = Patient 1, outpatient, 250 μg once a day
[13] = Patient 2, outpatient, 250 μg twice a day after the third month
[14] = Patient 3, outpatient, 500 μg once a day at 20.00 h, first 4 weeks
[15] = Patient 1, outpatient, 250 μg once a day, after two weeks
[16] = Patient 1, outpatient, 250 μg once a day, if flushes occurred
[17] = Patient 2, outpatient, 250 μg once a day, over the following weeks
[18] = Patient 2, outpatient, 250 μg twice a day, eventually

## COc1ccc(C(CN(C)C)C2(O)CCCCC2)cc1 (stereo not drawn) [venlafaxine]
PMP flushing [1]
  Effectiveness against PMP flushing relative to placebo treatment: about twice as effective as placebo treatment

## Clc1cccc(Cl)c1N=C1NCCN1 [Clonidine]
PMP flushing [2]; Patient 1, up to 75 μg twice a day
  Effect on flushing: no beneficial effect
PMP flushing [2]; Patient 2, 50 μg twice a day
  Effect on flushing: no beneficial effect
PMP flushing [2]; Patient 3, 75 μg twice a day
  Effect on flushing: no effect whatsoever
PMP flushing [2]; all three patients, previous use
  Benefit on flushing: without experiencing a significant benefit

## Fc1ccc([C@@H]2CCNC[C@H]2COc2ccc3c(c2)OCO3)cc1 [paroxetine]
PMP flushing [1]
  Effectiveness against PMP flushing relative to placebo treatment: about twice as effective as placebo treatment

## estrogen
PMP flushing [1]
  Effectiveness against PMP flushing relative to placebo treatment: four times as effective
  Reduction of PMP flush frequency: 80-90%
Breast cancer
  Increased risk of a new primary or a breast cancer recurrence: three-fold

## CC(=O)N[C@H](Cc1ccc2ccccc2c1)C(=O)N[C@H](Cc1ccc(Cl)cc1)C(=O)N[C@H](Cc1cccnc1)C(=O)N[C@@H](CO)C(=O)N[C@@H](Cc1ccc(O)cc1)C(=O)N[C@H](CCCNC(N)=O)C(=O)N[C@@H](CC(C)C)C(=O)N[C@@H](CCCNC(=N)N)C(=O)N1CCC[C@H]1C(=O)N[C@H](C)C(N)=O [Cetrorelix] (Ac-[d2Nal][dPhe(4-Cl)][d3Pal]SY[dCit]LRP[dA]-NH2)
PMP flushing [3]; [6]
  Daytime flush duration: did not change appreciably
  Nighttime flush duration: tended to decrease
PMP flushing [3]; Patient 1, 250 μg once a day for five days, in particular during daytime
  Flush severity: weak trend to decrease
PMP flushing [3]; [7]
  Decrease in daytime flush frequency: 60-70%
  Decrease in nighttime flushing: 60-70%
  Decrease in total flush frequency: 60-70%
PMP flushing [3]; Patient 1, short-term
  Time for flush frequency to rise again to pre-treatment levels after discontinuation: ≤ 48 h
PMP flushing [3]; Patient 2, 250 μg once a day
  Daytime flush duration: tended to decrease slightly
  Daytime flush severity: did not change significantly
  Flush sweating: did not change significantly
PMP flushing [3]; [8]
  Change in daytime flush frequency: −80%
  Daytime flush frequency: 4 flushes per day
PMP flushing [3]; Patient 2, 250 μg once a day, after the first night
  Nighttime flushing: completely disappeared
PMP flushing [3]; Patient 2, 250 μg once a day, first night of treatment
  Change in nighttime flushing: −80%
PMP flushing [3]; Patient 2, 250 μg once a day, first night of treatment, from 5
  Nighttime flushing: 1
PMP flushing [3]; Patient 2, 250 μg once a day, within one day
  Change in daytime flush frequency: −60%
PMP flushing [3]; Patient 2, 250 μg once a day, within one day, from 20
  Daytime flush frequency: 8
PMP flushing [3]; Patient 2, within the two days after discontinuation
  Flush frequency after discontinuation: did not reach pre-treatment levels
PMP flushing [3]; [9]
  Change in daytime flushes: −25%
  Change in total flushes: −25%
  Nighttime flushing: did not change significantly
PMP flushing [3]; Patient 3, 250 μg twice a day
  Nighttime flushing: started to decrease
PMP flushing [3]; Patient 3, after 250 μg once then twice a day, one day after discontinuation
  Decrease in total daily flush frequency: 80%
PMP flushing [3]; Patient 3, six days after discontinuation
  Flush frequency after discontinuation: still markedly lower than before treatment
[4]; Patient 1, 250 μg once a day
  Time at which FSH reached its nadir: 3 days
[4]; [6]
  Serum SHBG level: did not change
  Serum albumin level: did not change
  Serum estradiol level: did not change
[4]; Patient 1, 250 μg once a day, in 3 days, from about 90
  Serum FSH: ~60 U/L
[4]; Patient 1, 250 μg once a day, within 12 hours, from about 22
  Serum LH level: ~10 U/L
[4]; Patient 1, short-term
  Time for serum FSH to rise again to pre-treatment levels after discontinuation: ≤ 48 h
  Time for serum LH to rise again to pre-treatment levels after discontinuation: ≤ 48 h
[4]; Patient 2, 250 μg once a day
  Serum FSH level change: gradual decrease
  Time at which FSH reached its nadir: 5 days
[4]; Patient 2, 250 μg once a day, within 12 hours
  Serum LH change: abrupt decrease
[4]; Patient 2, short-term
  Time for LH to return to pre-treatment levels after discontinuation: ≤ 48 h
[4]; Patient 2, short-term, compared with LH
  FSH after discontinuation: rose somewhat more slowly
[4]; [10]
  FSH change: more gradually
  LH change: decreased abruptly
[4]; Patient 3, short-term
  FSH after discontinuation of treatment: rose rapidly
  LH after discontinuation of treatment: rose rapidly
Serum LH and FSH; [11]
  Time for FSH levels to rise to pretreatment levels after discontinuation: ≤ 3 days
  Time for LH levels to rise to pretreatment levels after discontinuation: ≤ 3 days
Serum LH and FSH; [12]
  Serum FSH: decreased to levels similar to those observed during the in-hospital setting
  Serum LH: decreased to levels similar to those observed during the in-hospital setting
Serum LH and FSH; Patient 2, outpatient, 250 μg once a day, stabilized level
  FSH: around 15 U/L
Serum LH and FSH; Patient 2, outpatient, 250 μg once a day, within a week
  Serum LH: decreased to premenopausal levels
Serum LH and FSH; [13]
  Serum FSH level: further decreased
  Serum LH level: further decreased
Serum LH and FSH; [14]
  Serum FSH nadir: 25 U/L
  Serum LH nadir: 8 U/L
PMP flushing [5]; [11]
  Time after discontinuation at which flush frequency started to rise: 6 weeks
PMP flushing [5]; [15]
  Daytime flush frequency: close to zero
  Nighttime flush frequency: close to zero
PMP flushing [5]; Patient 1, outpatient, 250 μg once a day, from about 8, day as well as night
  Flush severity (scale of 0-10): ~4
PMP flushing [5]; [16]
  Degree of perspiration: unchanged
  Flush duration: unchanged
PMP flushing [5]; [17]
  Daytime flush duration: gradually decreased
  Daytime flush perspiration: gradually decreased
  Daytime flush severity: gradually decreased
PMP flushing [5]; Patient 2, outpatient, 250 μg once a day, up to third month
  Daytime flushing, level at which it levelled off: 10 flushes/day
PMP flushing [5]; Patient 2, outpatient, 250 μg once a day, within the first week, from about 18
  Daytime flush frequency: ~8 flushes/day
PMP flushing [5]; Patient 2, outpatient, 250 μg once a day, within two days
  Nighttime flushing: disappeared completely
PMP flushing [5]; [13]
  Flushing: further decreased
PMP flushing [5]; [18]
  Total daily flushing: 6 flushes/day
  Total decrease in total daily flushing: about 75%
PMP flushing [5]; Patient 3, outpatient, 500 μg once a day, P<0.007
  Decline of flush frequency: 79.3%
PMP flushing [5]; Patient 3, outpatient, 500 μg once a day, from 9.67±1.12, P<0.007
  Flush frequency (mean±standard error of the mean): 2.00±0.44

## NCC1(CC(=O)O)CCCCC1 [gabapentin]
PMP flushing [1]
  Effectiveness against PMP flushing relative to placebo treatment: about twice as effective as placebo treatment
